One assay deals with HeLa. Briefly: Inhibition of STX (unknown origin)-induced toxicity in human HeLa cells assessed as protection against toxin-induced inhibition of protein biosynthesis by measuring incorporation of [14C]-leucine into cells at 30 uM preincubated for 1 hr followed by toxin challenge measured after 20 hrs by liquid scintillation counting analysis relative to control. It counts as cell-based.

Assay [1] in a line: Inhibition of STX (unknown origin)-induced toxicity in human HeLa cells assessed as protection against toxin-induced inhibition of protein biosynthesis by measuring incorporation of [14C]-leucine into cells preincubated for 1 hr followed by toxin challenge measured after 20 hrs by liquid scintillation counting analysis. It counts as cell-based.

Consider `Cc1nc(-c2ccc([C@H]3N(C)c4ccc(F)cc4C(=O)N3c3ccccc3)s2)cs1`, for which the fold change (FC) in the assay on HeLa worked out at 357. Besides, in assay [1], the concentration giving a half-maximal response (EC50) – broadly, the concentration at which the effect is half-maximal – was found to be 54 nM. Take `Cc1nc(-c2ccc(C3N(C)c4ccc(F)cc4C(=O)N3c3ccccc3)s2)cs1` (racemic): in assay [1], the concentration for a half-maximal effect (EC50) was 102 nM. Consider `Cc1nc(-c2ccc([C@@H]3N(C)c4ccc(F)cc4C(=O)N3c3ccccc3)s2)cs1`, for which the fold change (FC) with HeLa stood at 68. Besides, the EC50 in assay [1] was 2400 nM. For the molecule `Cc1ccc(/C=N/c2ccccc2C(=O)Nc2ccccc2)s1`, the EC50 in assay [1] turned out to be 27000 nM.

These data come from ChEMBL document CHEMBL3108768 (ACS Med Chem Lett, 2014).
